Measurements from patent US11046991B2, “Rapid preconcentration of viable bacteria using magnetic ionic liquid for PCR amplification and culture-based diagnostics” (priority 2017, dated 2021).
Like-named read-outs stand apart in the source and are kept apart here.

Key:
[1] = Magnetic susceptibility, SQUID magnetometer; type: physicochemical; details: for μeff, effective magnetic moment: from magnetic susceptibility data, SQUID
Experimental: The μeff values for each exemplary MIL were determined using a Quantum Design MPMS SQUID magnetometer following procedures similar to those previously reported. (Y. Mudryk, P. Manfrinetti, V. Smetana, J. Liu, M. L. Fornasini, A. Provino, V. K. Pecharsky, G. J. Miller and K. A. Gschneidner, J. Alloys Compd, 2013, 557, 252-260).

[2] = Thermal stability, MIL film in GC capillary with flame ionization detection; type: physicochemical; details: for onset of decomposition (thermal stability): 40° C. to 350° C. at 1° C./min
Experimental: The thermal stability of all exemplary MILs was tested by monitoring the thermal volatilization/decomposition of the MIL when the MIL was used as a stationary phase in gas chromatography. To achieve this, an approximate 0.25-0.28 μm film of IL/MIL was immobilized on the inner wall of a fused silica capillary. The IL/MIL coated capillary was then heated slowly in a GC oven and an ultra-sensitive flame ionization detector (FID) was used to detect any volatilization/decomposition of the IL/MIL. These tests were run using a temperature program starting at 40° C. and increased at 1° C./min to 350° C. on an Agilent 6850 gas chromatograph with a flame ionization detector (Santa Clara, Calif., USA). The [P66614^+] [Cl^−] IL was also coated under the same conditions and was used as a reference.

E. coli K12 cells = type: cell-based
Experimental: Since culture-based methods are contingent upon the isolation of viable bacteria, the detection of E. coli following MIL-based cell extraction is influenced by the cytotoxicity of MILs. To study the effect of MILs on the growth of E. coli, a 1 mL aliquot of LB media was inoculated with 8.0×10^2±0.5×10^2 CFUs mL^−1 and spiked with approximately 10 μL of a MIL. The mixture was agitated by vortex to simulate the recovery procedure after which a 100 μL aliquot of the suspension was plated on selective agar.

[3] = Hydrophobicity comparison: 50 μL MIL in 12 mL water, vortexed and heated to 85° C.; type: physicochemical; details: 50 μL MIL in 12 mL deionized water, 85° C. for 10 minutes
Experimental: […] […] Vortexing the MIL droplet caused dispersion of the MIL into fine microdroplets that were suspended within the aqueous solution, ultimately settling at the bottom of the vessel. […] Each MIL was vortexed and heated to 85° C. for 10 minutes.

E. coli [4] = assay: PCR amplification of LB back-extraction solution after MIL-based extraction; details: for E. coli concentration at which bacterial pDNA was detected by PCR: cell recovery in LB media prior to PCR, 2 mL sample; for amplicon after extraction of cell filtrate (cell-free DNA): filtrate of 1.68×10^5 CFUs mL^−1 suspension through 0.22 μm filter
Experimental: (§1) A general schematic for the MIL-based cell extraction procedure is depicted in FIG. 10. In a 4 mL screw cap glass vial, a controlled volume (e.g., 10 μL) of MIL was added to 2 mL of diluted cell suspension and dispersed into microdroplets by vortex agitation for 15-120 s. Following the dispersive extraction, a 0.9 T magnetic field was applied to collect the cell-enriched MIL extraction phase. After the aqueous phase was decanted, the MIL was subjected to a static wash with 2 mL of deionized water to ensure that residual cell suspension was removed. The extracted E. coli was recovered from the MIL solvent by vortexing the MIL in 1 mL of LB media from 30 to 300 s. Following back-extraction, aliquots of the cell-enriched LB media were cultured on selective agar as well as analyzed by PCR.
Following the recovery of E. coli cells from the MIL extraction phase, an aliquot of the LB back-extraction solution was analyzed by PCR. […] The thermal protocol used for amplification of the MTAP gene was as follows: 5 min initial denaturation at 95° C. followed by 30 cycles of 30 s denaturation at 95° C., 45 s annealing at 54° C., and elongation for 45 s at 72° C.
After thermal cycling, the PCR products were mixed with 10 μL of bromophenol blue tracking dye solution (30% glycerol v/v) and loaded on a 1% agarose gel stained with SYBR Safe DNA gel stain. The PCR amplicon was subjected to electrophoresis at approximately 4 V cm^−1 and subsequently visualized using a transilluminator.
To improve detection limits, cells were recovered from the MIL phase using […] and a 1 μL aliquot of LB media was analyzed by PCR amplification. […] MILs as extraction media.
MIL. […] 1999; 37:2479-82). It should be noted that PCR assays are unable to distinguish between live and dead cells and, therefore, are complementary to microbiological culture for the determination of viable cells in a sample.

E. coli [5] = assay: MIL-based extraction of viable E. coli, selective culture and colony enumeration; details: aqueous solutions of 1.68×10^5 CFUs mL^−1
Experimental: For each cell extraction experiment, 2 mL of sterile LB media with 100 μg mL^−1 carbenicillin was inoculated with 0.5 μL of E. coli glycerol stock and incubated overnight at 37° C. and 225 rpm. The overnight culture was centrifuged at 2820 g for 8 min and the supernatant discarded. The cells were then vortexed for 15 s in 2 mL of deionized water and centrifuged once again at 2820 g for 8 min. Following a total of three washes, the cells were re-suspended in 1 mL of deionized water. The concentration of cells within the suspension was initially determined by measuring the optical density of the sample at 600 nm (OD600), where an OD600 equal to 1.000 represents 8×10^8 E. coli cells mL^−1. The bacterial suspension was diluted to an OD600 value of 0.021 (1.68×10^7 cells mL^−1), after which 10-fold serial dilutions were performed to yield the desired sample concentration. Since the sample concentrations were below the detection limit of the spectrophotometer, the final concentration of each sample (in CFUs mL^−1) was obtained using a plate counting method. Briefly, 15 μL of diluted cell suspension were mixed with 985 μL of LB media and vortexed for 3 min. A […] aliquot of the suspension was spread onto a selective LB agar plate with 100 μg mL^−1 carbenicillin and incubated overnight at 37° C. to obtain visible colonies.
as §1
To detect viable bacteria recovered from the MIL extraction solvent, a culture-based method selective for E. coli transformants was employed. Following MIL-based extraction, a 100 μL aliquot of the LB back-extraction solution was plated on LB agar containing 100 μg mL^−1 carbenicillin and incubated overnight at 37° C. Visible colonies were counted, tabulated, and compared to the colonies obtained for the sample prior to extraction. The enrichment factor (EF) from the MIL-based extraction was calculated by Equation 1, where CMIL is the concentration of CFUs within the MIL extraction phase and CS represents the concentration of CFUs in the bacterial suspension prior to extraction. EF=CMIL/CS Equation 1
To determine if MILs can extract viable E. coli cells, aqueous solutions of 1.68×10^5 CFUs mL^−1 were extracted with each of the seven MILs using an approach that is similar to one depicted in FIG. 10. […] [Co(hfacac)3^−] MILs with the greatest number of colonies obtained from the Ni(II)-based MIL extractions.

[6] = 1 second vial inversion (viscosity comparison); type: physicochemical; details: 1 second inversion of each MIL
Excerpt: FIG. 2 compares the viscosities of [P66614^+]2[MnCl4^2−], [P66614^+][Ni(hfacac)3^−], and [P66614^+][Nd(hfacac)4^−] by performing a 1 second inversion of each MIL.

[7] = 25° C.; cited from earlier work
[8] = LB media with 8.0×10^2 CFUs mL^−1, approximately 10 μL of MIL, compared to unexposed standard

CCCCCCCCCCCCCC[P+](CCCCCC)(CCCCCC)CCCCCC.O=C(C=C([O-])C(F)(F)F)C(F)(F)F.O=C(C=C([O-])C(F)(F)F)C(F)(F)F.O=C(C=C([O-])C(F)(F)F)C(F)(F)F.[Co+2] [MIL 1, trihexyl(tetradecyl)phosphonium tris(hexafluoroacetylaceto)cobaltate(II)]
μeff, effective magnetic moment [1]: 4.3 μB
sharp increase in the rate of decomposition [2]: around 200 °C
onset of decomposition (thermal stability) [2]: approximately 130 °C
influence on the growth of E. coli (E. coli K12 cells): little to no influence on the growth of E. coli
dissolution into the aqueous phase [3]: no sign of dissolution into the aqueous phase
E. coli concentration at which bacterial pDNA was detected by PCR (E. coli [4]): 1.68×10^5 CFUs mL^−1

CCCCCCCCCCCCCC[P+](CCCCCC)(CCCCCC)CCCCCC.O=C(C=C([O-])C(F)(F)F)C(F)(F)F.O=C(C=C([O-])C(F)(F)F)C(F)(F)F.O=C(C=C([O-])C(F)(F)F)C(F)(F)F.[Mn+2] [MIL 2, [P66614^+] tris(hexafluoroacetylaceto)manganate(II)]
μeff ([1]; at higher temperatures): 5.5 μB
μeff ([1]; at lower temperatures): 5.8 μB
degradation start, higher than the cobalt-based MIL [2]: approximately 25 °C
visible colonies after back-extraction with LB media and culture on selective agar (E. coli [5]): did not yield any visible colonies
influence on the growth of E. coli (E. coli K12 cells): little to no influence on the growth of E. coli

CCCCCCCCCCCCCC[P+](CCCCCC)(CCCCCC)CCCCCC.O=C(C=C([O-])C(F)(F)F)C(F)(F)F.O=C(C=C([O-])C(F)(F)F)C(F)(F)F.O=C(C=C([O-])C(F)(F)F)C(F)(F)F.O=C(C=C([O-])C(F)(F)F)C(F)(F)F.[Dy+3] [MIL 4, [P66614^+] tetrakis(hexafluoroacetylaceto)dysprosate(III)]
μeff, effective magnetic moment [1]: 9.7 μB
influence on the growth of E. coli (E. coli K12 cells; [8]): little to no influence on the growth of E. coli
E. coli concentration at which bacterial pDNA was detected by PCR (E. coli [4]): 1.68×10^5 CFUs mL^−1
amplicon after extraction of cell filtrate (cell-free DNA) (E. coli [4]): No amplicon was detected

CCCCCCCCCCCCCC[P+](CCCCCC)(CCCCCC)CCCCCC.O=C(C=C([O-])C(F)(F)F)C(F)(F)F.O=C(C=C([O-])C(F)(F)F)C(F)(F)F.O=C(C=C([O-])C(F)(F)F)C(F)(F)F.O=C(C=C([O-])C(F)(F)F)C(F)(F)F.[Gd+3] [MIL 5, [P66614^+] tetrakis(hexafluoroacetylaceto)gadolinate(III)]
μeff, effective magnetic moment [1]: 7.7 μB
influence on the growth of E. coli (E. coli K12 cells; [8]): hindered the proliferation of cells

CCCCCCCCCCCCCC[P+](CCCCCC)(CCCCCC)CCCCCC.O=C(C=C([O-])C(F)(F)F)C(F)(F)F.O=C(C=C([O-])C(F)(F)F)C(F)(F)F.O=C(C=C([O-])C(F)(F)F)C(F)(F)F.O=C(C=C([O-])C(F)(F)F)C(F)(F)F.[Nd+3] [MIL 6, [P66614^+] tetrakis(hexafluoroacetylaceto)neodymate(III)]
μeff, effective magnetic moment [1]: 2.8 μB
onset of decomposition (thermal stability) [2]: around 225 °C
influence on the growth of E. coli (E. coli K12 cells; [8]): little to no influence on the growth of E. coli
movement down the vial [6]: flow easily toward the bottom of the vial
dissolution into the aqueous phase [3]: no sign of dissolution into the aqueous phase
E. coli concentration at which bacterial pDNA was detected by PCR (E. coli [4]): 1.68×10^5 CFUs mL^−1
amplicon after extraction of cell filtrate (cell-free DNA) (E. coli [4]): No amplicon was detected

CCCCCCCCCCCCCC[P+](CCCCCC)(CCCCCC)CCCCCC [No. 1, [P66614^+] tetrachloroferrate(III), reference compound]
influence on the growth of E. coli (E. coli K12 cells; [8]): hindered the proliferation of cells
viscosity [7]: 650 cP
dissolution into the aqueous phase [3]: dissolving into the aqueous solution

CCCCCCCCCCCCCC[P+](CCCCCC)(CCCCCC)CCCCCC.CCCCCCCCCCCCCC[P+](CCCCCC)(CCCCCC)CCCCCC.CCCCCCCCCCCCCC[P+](CCCCCC)(CCCCCC)CCCCCC.[Cl][Gd-3]([Cl])([Cl])([Cl])([Cl])[Cl] [[P66614]3[GdCl6^3−], [P66614] hexachlorogadolinate(III)]
viscosity [7]: 18390 cP

CCCCCCCCCCCCCC[P+](CCCCCC)(CCCCCC)CCCCCC.CCCCCCCCCCCCCC[P+](CCCCCC)(CCCCCC)CCCCCC.[Cl][Mn-2]([Cl])([Cl])[Cl] [[P66614^+]2[MnCl4^2−], [P66614^+] tetrachloromanganate(II), reference compound]
viscosity [7]: 75230 cP
movement down the vial [6]: little to no movement down the vial

CCCCCCCCCCCCCC[P+](CCCCCC)(CCCCCC)CCCCCC.[Cl-] [[P66614^+] [Cl^−], Trihexyl(tetradecyl)phosphonium chloride, reference compound]
thermal decomposition compared with the MILs ([2]; reference): lowest thermal decomposition
